Results reported in ChEMBL document CHEMBL1153960, “Syntheses of novel high affinity ligands for opioid receptors” (Bioorg Med Chem Lett, 2009).

Columns and labels:
[1] = molecular target: T1, Mu-type opioid receptor (Homo sapiens, UniProt P35372); test: biochemical
[2] = molecular target: T1, Mu-type opioid receptor; test: biochemical; remark: listed apart in the source
Description: Agonist activity at human mu opioid receptor expressed in CHO cells assessed as stimulation of [35S]GTPgammaS binding

[3] = molecular target: T2, Delta-type opioid receptor (Homo sapiens, UniProt P41143); test: biochemical
[4] = molecular target: T3, Kappa-type opioid receptor (Homo sapiens, UniProt P41145); test: Displacement of [3H]U69,593 from human kappa opioid receptor expressed in CHO cells after 60 mins by scintillation counting
[5] = molecular target: T1, Mu-type opioid receptor; test: biochemical; remark: listed apart in the source
[6] = molecular target: T3, Kappa-type opioid receptor; test: Agonist activity at human kappa opioid receptor expressed in CHO cells assessed as stimulation of [35S]GTPgammaS binding
[7] = molecular target: T2, Delta-type opioid receptor; test: biochemical; remark: listed apart in the source
[8] = molecular target: T3, Kappa-type opioid receptor; test: Antagonist activity against human kappa opioid receptor expressed in CHO cells assessed as inhibition of U50488-stimulated [35S]GTPgammaS binding
[9] = molecular target: T3, Kappa-type opioid receptor; conditions: CHO, 10 uM
[10] = molecular target: T2, Delta-type opioid receptor; test: biochemical; remark: listed apart in the source
Description: Agonist activity at human delta opioid receptor expressed in CHO cells assessed as stimulation of [35S]GTPgammaS binding

[11] = molecular target: T1, Mu-type opioid receptor; conditions: CHO, 10 uM

T2 sequence (P41143 whole entry): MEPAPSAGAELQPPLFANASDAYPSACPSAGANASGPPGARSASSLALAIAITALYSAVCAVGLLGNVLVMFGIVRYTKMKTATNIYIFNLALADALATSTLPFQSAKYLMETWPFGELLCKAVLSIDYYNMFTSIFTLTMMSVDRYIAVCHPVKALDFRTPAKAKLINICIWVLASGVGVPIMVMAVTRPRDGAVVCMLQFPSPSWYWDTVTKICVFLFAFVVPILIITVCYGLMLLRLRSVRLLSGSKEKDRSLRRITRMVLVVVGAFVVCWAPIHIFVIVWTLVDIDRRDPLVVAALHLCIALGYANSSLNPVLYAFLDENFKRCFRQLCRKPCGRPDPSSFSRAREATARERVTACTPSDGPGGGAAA
T1 sequence (P35372 whole entry): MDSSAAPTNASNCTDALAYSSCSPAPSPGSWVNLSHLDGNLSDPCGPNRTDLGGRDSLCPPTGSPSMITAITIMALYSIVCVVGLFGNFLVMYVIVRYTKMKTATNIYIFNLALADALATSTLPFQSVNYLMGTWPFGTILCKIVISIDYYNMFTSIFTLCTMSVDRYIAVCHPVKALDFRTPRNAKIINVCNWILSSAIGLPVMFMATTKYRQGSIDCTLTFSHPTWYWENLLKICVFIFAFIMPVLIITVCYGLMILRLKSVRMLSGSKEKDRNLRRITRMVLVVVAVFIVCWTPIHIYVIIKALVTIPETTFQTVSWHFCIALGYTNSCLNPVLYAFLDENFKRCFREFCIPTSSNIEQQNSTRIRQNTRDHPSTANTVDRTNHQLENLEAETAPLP
T3 sequence (P41145 whole entry): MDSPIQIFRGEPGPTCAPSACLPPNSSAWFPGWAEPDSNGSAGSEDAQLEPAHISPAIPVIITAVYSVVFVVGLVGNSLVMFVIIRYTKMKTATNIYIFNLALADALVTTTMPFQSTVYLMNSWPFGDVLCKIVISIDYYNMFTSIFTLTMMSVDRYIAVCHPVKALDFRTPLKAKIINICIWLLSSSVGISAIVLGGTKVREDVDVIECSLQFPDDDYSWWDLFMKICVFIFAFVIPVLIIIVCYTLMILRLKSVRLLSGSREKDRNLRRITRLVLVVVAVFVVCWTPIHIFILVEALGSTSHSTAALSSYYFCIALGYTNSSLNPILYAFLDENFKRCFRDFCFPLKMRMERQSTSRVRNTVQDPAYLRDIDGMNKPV

`CN1CC[C@]23c4c5ccc(C(N)=O)c4O[C@H]2C(=O)CC[C@H]3[C@H]1C5` was tested, and the Ki [1] was 1.2 nM, the EC50 [2] was 110 nM and the Ki [3] was 260 nM.

Compound `NC(=O)c1ccc2c3c1O[C@H]1CCC[C@@]4(O)[C@@H](C2)N(CC2CC2)CC[C@]314` has a Ki [1] of 2.5 nM, a Ki [4] of 16 nM and an IC50 [5] of 54 nM. For the same compound, the Ki [3] was 630 nM.

With `NC(=O)c1ccc2c(c1O)[C@@]13CCCC[C@@]1(O)[C@@H](C2)N(CC1CC1)CC3` the EC50 [6] was 2.3 nM, the IC50 [7] was 5.8 nM and the IC50 [8] was 57 nM.

`NC(=O)c1ccc2c(c1O)[C@]13CCN(CC4CCC4)[C@H](C2)[C@]1(O)CC[C@@H](O)C3` showed an IC50 [7] of 130 nM, an Imax [9] of 25% and an EC50 [10] of 3.7 nM.

`NC(=O)c1ccc2c(c1O)[C@]13CCN(CC4CC4)[C@H](C2)[C@]1(O)CCC(=O)C3` gave an EC50 [6] of 3.3 nM, an IC50 [7] of 6.9 nM and an IC50 [8] of 38 nM. The EC50 [10] was 1.8 nM and the IC50 [5] was 0.88 nM.

With `C[N+]1(CC2CC2)CC[C@]23c4c5ccc(C(N)=O)c4O[C@H]2C(=O)CC[C@@]3(O)[C@H]1C5` (stereo partly specified) the Ki [1] was 37 nM and the Ki [3] was over 10000 nM.

`CN1CC[C@]23CC(=O)CC[C@H]2[C@H]1Cc1ccc(C(N)=O)c(O)c13` showed an EC50 [6] of 3.9 nM, a Ki [1] of 0.3 nM and an EC50 [2] of 1.6 nM. For the same compound, the Ki [4] was 2.3 nM and the Ki [3] was 8.3 nM.

For `NC(=O)c1ccc2c3c1O[C@H]1[C@@H](O)CC[C@@]4(O)[C@@H](C2)N(CC2CCC2)CC[C@]314`, the Imax [11] was 56%.

In the case of `NC(=O)c1ccc2c(c1O)[C@]13CCN(CC4CCC4)[C@H](C2)[C@]1(O)CC[C@H](O)C3`, the Imax [9] is reported as 36%.

For `Oc1ccc2c3c1O[C@H]1CCC[C@@]4(O)[C@@H](C2)N(CC2CC2)CC[C@]314`, the Ki [1] was 0.24 nM, the IC50 [8] was 13 nM and the Ki [4] was 0.24 nM. For the same compound, the IC50 [5] was 4.4 nM and the Ki [3] was 79 nM.

For `NC(=O)c1ccc2c(c1O)[C@]13CCN(CC4CC4)[C@H](C2)[C@]1(O)Cc1c([nH]c2ccccc12)C3`, the Ki [1] was 0.51 nM, the IC50 [7] was 0.08 nM and the IC50 [8] was 28 nM. For the same compound, the Ki [4] was 0.81 nM and the Ki [3] was 0.025 nM.

Work on `NC(=O)c1ccc2c3c1O[C@H]1C(=O)CC[C@@]4(O)[C@@H](C2)N(CC2CC2)CC[C@]314` yielded an EC50 [2] of 4.9 nM and an IC50 [5] of 270 nM.

`C[N+]1(CC2CC2)CC[C@]23c4c5ccc(O)c4O[C@H]2C(=O)CC[C@@]3(O)[C@H]1C5` (stereo partly specified) [NALTREXONE METHIODIDE] was tested, and the EC50 [6] was 9 nM, the Imax [9] was 60% and the IC50 [5] was 170 nM.

In the case of `NC(=O)c1ccc2c3c1O[C@H]1c4[nH]c5ccccc5c4C[C@@]4(O)[C@@H](C2)N(CC2CC2)CC[C@]314`, the Ki [1] is reported as 46 nM, the IC50 [7] is reported as 0.77 nM and the Ki [4] is reported as 47 nM. For the same compound, the Ki [3] was 0.3 nM.
